Data as given in patent US20260224566A1, “Obicetrapib and Ezetimibe Combination Treatment and Fixed Dose Pharmaceutical Compositions” (NewAmsterdam Pharma B.V., priority 2023, published 2026).

Legend:
Lp(a) = conditions: TA-8995-06, 12 weeks of treatment; cited from earlier work
[1] = test system: participants currently receiving high-intensity statin therapy; experiment: ROSE2 Phase 2b clinical trial: LDL-C and other lipid efficacy endpoints; format: in vivo, human
Method: The primary objective of this study is to evaluate the effect of obicetrapib 10 mg+ezetimibe 10 mg combination therapy compared with placebo, when used as an adjunct to high-intensity statin therapy, on LDL-C at Day 84.
The secondary objectives of this study include the following, in hierarchical order: • To evaluate the effect of obicetrapib 10 mg monotherapy compared with placebo, when used as an adjunct to high-intensity statin therapy, on LDL-C at Day 84; • To evaluate the effect of obicetrapib 10 mg+ezetimibe 10 mg combination therapy compared with placebo, when used as an adjunct to high-intensity statin therapy, on ApoB at Day 84; and • To evaluate the effect of obicetrapib 10 mg monotherapy compared with placebo, when used as an adjunct to high-intensity statin therapy, on ApoB at Day 84.
This study will be a placebo-controlled, double-blind, randomized, Phase 2 study to evaluate the efficacy, safety, and tolerability of obicetrapib 10 mg, both in combination with ezetimibe 10 mg and as monotherapy, as an adjunct to high-intensity statin therapy. This study will take place at approximately 20 sites in the United States.
Up to 2 weeks after the Screening Visit, participants will return to the site on Day 1 (Visit 2) and confirm study eligibility before being randomized and beginning treatment. Approximately 114 eligible participants (38 participants per treatment group) will be randomized in a 1:1:1 ratio to 1 of the following treatment groups: • Combination therapy: Obicetrapib 10 mg+ezetimibe 10 mg (administered as one 10 mg obicetrapib tablet and one 10 mg ezetimibe capsule); • Obicetrapib monotherapy: Obicetrapib 10 mg (administered as one 10 mg obicetrapib tablet and 1 placebo capsule); or. • Placebo (administered as 1 placebo tablet and 1 placebo capsule).
During the 12-week Treatment Period, the assigned study drugs will be administered by the participants orally with water, once daily on Day 1 to Day 84 at approximately the same time each morning. Participants will return to the site on Day 28 (±2 days), Day 84 (±2 days), and Day 112 (±2 days) for efficacy, safety, and pharmacokinetic (PK) assessments. Participants, Investigators, the Clinical Research Organization (CRO), and the Sponsor will be blinded to all lipid results from Day 1 (Visit 2) for the first participant until all enrolled participants complete the Day 84 (End of Treatment) visit or are withdrawn from the study, in order to protect blinding to treatment assignment.
The primary efficacy endpoint is the percent change from Day 1 to Day 84 in LDL-C for the obicetrapib 10 mg+ezetimibe 10 mg combination treatment group compared with the placebo group.
The secondary efficacy endpoints include the following, in hierarchical order: • Percent change from Day 1 to Day 84 in LDL-C for the obicetrapib 10 mg monotherapy. • treatment group compared with the placebo group; • Percent change from Day 1 to Day 84 in ApoB for the obicetrapib 10 mg+ezetimibe 10 mg • combination treatment group compared with the placebo group; and • Percent change from Day 1 to Day 84 in ApoB for the obicetrapib 10 mg monotherapy treatment group compared with the placebo group.
The exploratory efficacy endpoints include the following: • Percent change from Day 1 to Day 84 in non-HDL-C, VLDL-C, HDL-C, TG, ApoE, Lp(a), and HDL-ApoE for the obicetrapib 10 mg+ezetimibe 10 mg combination treatment group compared with the placebo group and for the obicetrapib 10 mg monotherapy treatment group compared with the placebo group; and • Proportion of participants at Day 84 that achieve LDL-C <2.6 mmol/L (<100 mg/dL), LDL-C <1.8 mmol/L (<70 mg/dL), and LDL-C <1.3 mmol/L (<50 mg/dL) for the obicetrapib 10 mg+ezetimibe 10 mg combination treatment group compared with the placebo group and for the obicetrapib 10 mg monotherapy treatment group compared with the placebo group. […]

[2] = Exploratory Population, 10 mg each drug
[3] = mITT Population, 10 mg each drug

CCOC(=O)N1c2ccc(C(F)(F)F)cc2[C@@H](N(Cc2cc(C(F)(F)F)cc(C(F)(F)F)c2)c2ncc(OCCCC(=O)O)cn2)C[C@H]1CC [obicetrapib, {4-[(2-{[3,5-bis(trifluoromethyl)benzyl] [(2R,4S)-1-(ethoxycarbonyl)-2-ethyl-6-(trifluoromethyl)-1,2,3,4-tetrahydroquinolin-4-yl]amino}pyrimidin-5-yl)oxy]butanoic acid}]
Lp(a) levels (Lp(a)): statistically significant reduction
ApoB Change from Baseline to Day 28, Maximum [1, 2]: -1 mg/dL
ApoB Change from Baseline to Day 28, Median [1, 2]: -23.0 mg/dL
ApoB Change from Baseline to Day 28, Minimum [1, 2]: -55 mg/dL
ApoB Change from Baseline to Day 84, Maximum [1, 2]: 19 mg/dL
ApoB Change from Baseline to Day 84, Minimum [1, 2]: -52 mg/dL
ApoB Percent Change from Baseline to Day 28, Maximum [1, 2]: −3.0%
ApoB Percent Change from Baseline to Day 28, Mean [1, 2]: −26.00%
ApoB Percent Change from Baseline to Day 28, Median [1, 2]: −26.00%
ApoB Percent Change from Baseline to Day 28, Minimum [1, 2]: −47.4%
ApoB Percent Change from Baseline to Day 84, Maximum [1, 2]: 27.1%
ApoB Percent Change from Baseline to Day 84, Minimum [1, 2]: −44.8%
LDL-C Change from Baseline to Day 28, Maximum [1, 2]: -11 mg/dL
LDL-C Change from Baseline to Day 28, Mean [1, 2]: -43.0 mg/dL
LDL-C Change from Baseline to Day 28, Median [1, 2]: -45.0 mg/dL
LDL-C Change from Baseline to Day 28, Minimum [1, 2]: -87 mg/dL
LDL-C Change from Baseline to Day 84, Maximum [1, 2]: 24 mg/dL
LDL-C Change from Baseline to Day 84, Minimum [1, 2]: -112 mg/dL
LDL-C Percent Change from Baseline to Day 28, Maximum [1, 2]: −10.4%
LDL-C Percent Change from Baseline to Day 28, Minimum [1, 2]: −82.0%
LDL-C Percent Change from Baseline to Day 84, Maximum [1, 2]: 22.6%
LDL-C Percent Change from Baseline to Day 84, Minimum [1, 2]: −78.4%
Lp(a) Change from Baseline to Day 84, Maximum [1, 2]: 3.0 nmol/L
ApoB at Day 28, Maximum [1, 2]: 110 mg/dL
ApoB at Day 28, Mean [1, 2]: 65.4 mg/dL
ApoB at Day 28, Median [1, 2]: 64.5 mg/dL
ApoB at Day 28, Minimum [1, 2]: 32 mg/dL
LDL-C at Day 28, Maximum [1, 2]: 136 mg/dL
LDL-C at Day 28, Mean [1, 2]: 57.6 mg/dL
LDL-C at Day 28, Median [1, 2]: 51.5 mg/dL
LDL-C at Day 28, Minimum [1, 2]: 16 mg/dL
ApoB at Day 84, Maximum [1, 2]: 123 mg/dL
ApoB at Day 84, Mean [1, 2]: 69.1 mg/dL
ApoB at Day 84, Median [1, 2]: 65.0 mg/dL
ApoB at Day 84, Minimum [1, 2]: 30 mg/dL
LDL-C at Day 84, Maximum [1, 2]: 148 mg/dL
LDL-C at Day 84, Mean [1, 2]: 60.7 mg/dL
LDL-C at Day 84, Median [1, 2]: 55.5 mg/dL
LDL-C at Day 84, Minimum [1, 2]: 21 mg/dL
Lp(a) at Day 84, Maximum [1, 2]: 327.7 nmol/L
Lp(a) at Day 84, Mean [1, 2]: 74.75 nmol/L
Lp(a) at Day 84, Median [1, 2]: 20.85 nmol/L
Lp(a) at Day 84, Minimum [1, 2]: 2.8 nmol/L
median reduction in LDL-C ([1]; ROSE2, obicetrapib 10 mg with or without ezetimibe 10 mg, adjunct to high-intensity statin): 39%
ApoB Change from Baseline to Day 28, Maximum [1, 3]: 50 mg/dL
ApoB Change from Baseline to Day 28, Median [1, 3]: -20.0 mg/dL
ApoB Change from Baseline to Day 28, Minimum [1, 3]: -85 mg/dL
ApoB Change from Baseline to Day 84, Maximum [1, 3]: 67 mg/dL
ApoB Change from Baseline to Day 84, Minimum [1, 3]: -52 mg/dL
ApoB Percent Change from Baseline to Day 28, Maximum [1, 3]: 64.9%
ApoB Percent Change from Baseline to Day 28, Minimum [1, 3]: −62.0%
ApoB Percent Change from Baseline to Day 84, Maximum [1, 3]: 100.0%
ApoB Percent Change from Baseline to Day 84, Mean [1, 3]: −9.50%
ApoB Percent Change from Baseline to Day 84, Minimum [1, 3]: −44.8%
LDL-C Change from Baseline to Day 28, Maximum [1, 3]: 64 mg/dL
LDL-C Change from Baseline to Day 28, Median [1, 3]: -35.0 mg/dL
LDL-C Change from Baseline to Day 28, Minimum [1, 3]: -121 mg/dL
LDL-C Change from Baseline to Day 84, Maximum [1, 3]: 98 mg/dL
LDL-C Change from Baseline to Day 84, Minimum [1, 3]: -112 mg/dL
LDL-C Percent Change from Baseline to Day 28, Maximum [1, 3]: 70.3%
LDL-C Percent Change from Baseline to Day 28, Minimum [1, 3]: −82.0%
LDL-C Percent Change from Baseline to Day 84, Maximum [1, 3]: 161.5%
LDL-C Percent Change from Baseline to Day 84, Minimum [1, 3]: −78.4%
Lp(a) Change from Baseline to Day 84, Maximum [1, 3]: 22.0 nmol/L
Lp(a) Change from Baseline to Day 84, Median [1, 3]: -4.50 nmol/L
ApoB at Day 28, Maximum [1, 3]: 140 mg/dL
ApoB at Day 28, Mean [1, 3]: 73.4 mg/dL
ApoB at Day 28, Median [1, 3]: 66.0 mg/dL
ApoB at Day 28, Minimum [1, 3]: 32 mg/dL
LDL-C at Day 28, Maximum [1, 3]: 169 mg/dL
LDL-C at Day 28, Mean [1, 3]: 70.3 mg/dL
LDL-C at Day 28, Median [1, 3]: 56.0 mg/dL
LDL-C at Day 28, Minimum [1, 3]: 16 mg/dL
ApoB at Day 84, Maximum [1, 3]: 147 mg/dL
ApoB at Day 84, Mean [1, 3]: 82.4 mg/dL
ApoB at Day 84, Median [1, 3]: 72.0 mg/dL
ApoB at Day 84, Minimum [1, 3]: 30 mg/dL
LDL-C at Day 84, Maximum [1, 3]: 196 mg/dL
LDL-C at Day 84, Mean [1, 3]: 82.7 mg/dL
LDL-C at Day 84, Median [1, 3]: 65.0 mg/dL
LDL-C at Day 84, Minimum [1, 3]: 21 mg/dL
Lp(a) at Day 84, Maximum [1, 3]: 327.7 nmol/L
Lp(a) at Day 84, Mean [1, 3]: 77.96 nmol/L
Lp(a) at Day 84, Median [1, 3]: 26.25 nmol/L
Lp(a) at Day 84, Minimum [1, 3]: 2.8 nmol/L
